Assays:
Assay type in all cases: in vivo
Kochia (Kochia scoparia) [1] = test: Test A preemergence; details: Bassia scoparia, pre-emergence, 240 h, 0 to 100 scale where 0 is no effect and 100 is complete control, read-out: Kochia plant response rating
Procedure, shortened: (§1)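 Greenhouse, ~10 d after spray; visual injury vs untreated controls, 0 = no effect, 100 = complete control. Preemergence: directed soil spray over planted seeds. Postemergence: plants 2–10 cm, 1–2 leaf stage. Loam/sand blend. Compound in non-phytotoxic solvent with surfactant.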

[2] = system: barnyardgrass (Echinochloa crus-galli); test: Test A preemergence; details: Echinochloa crus-galli, pre-emergence, 240 h, 0 to 100 scale where 0 is no effect and 100 is complete control, read-out: Barnyardgrass plant response rating
Procedure, shortened: as §1

[3] = system: giant foxtail (Setaria faberii); test: Test A preemergence; details: Setaria faberi, pre-emergence, 240 h, 0 to 100 scale where 0 is no effect and 100 is complete control, read-out: Foxtail, Giant plant response rating
Procedure, shortened: as §1

[4] = system: pigweed (Amaranthus retroflexus); test: Test A preemergence; details: Amaranthus retroflexus, pre-emergence, 240 h, 0 to 100 scale where 0 is no effect and 100 is complete control, read-out: Pigweed plant response rating
[5] = system: ragweed (common ragweed, Ambrosia elatior); test: Test A preemergence; details: Ambrosia artemisiifolia, pre-emergence, 240 h, 0 to 100 scale where 0 is no effect and 100 is complete control, read-out: Ragweed plant response rating
Procedure, shortened: as §1

[6] = system: ryegrass, Italian (Italian ryegrass, Lolium multiflorum); test: Test A preemergence; details: Lolium multiflorum, pre-emergence, 240 h, 0 to 100 scale where 0 is no effect and 100 is complete control, read-out: Ryegrass, Italian plant response rating
Procedure, shortened: as §1

[7] = system: Galium (catchweed bedstraw, Galium aparine); test: Test A postemergence; details: Galium, post-emergence, 240 h, Postemergence, read-out: Galium plant response rating (0 to 100 scale)
Procedure, shortened: as §1

Kochia (Kochia scoparia) [8] = test: Test A postemergence; details: Bassia scoparia, post-emergence, 240 h, Postemergence, read-out: Kochia plant response rating (0 to 100 scale)
Procedure, shortened: as §1

[9] = system: barnyardgrass (Echinochloa crus-galli); test: Test A postemergence; details: Echinochloa crus-galli, post-emergence, 240 h, Postemergence
Procedure, shortened: as §1

[10] = system: blackgrass (Alopecurus myosuroides); test: Test A postemergence; details: Alopecurus myosuroides, post-emergence, 240 h, Postemergence, read-out: Blackgrass plant response rating (0 to 100 scale)
Procedure, shortened: as §1

corn (Zea mays) = test: Test A postemergence; details: Zea mays, post-emergence, 240 h, Postemergence, read-out: Corn plant response rating (0 to 100 scale)
Procedure, shortened: as §1

[11] = system: giant foxtail (Setaria faberii); test: Test A postemergence; details: Setaria faberi, post-emergence, 240 h, Postemergence, read-out: Foxtail, Giant plant response rating (0 to 100 scale)
Procedure, shortened: as §1

[12] = system: pigweed (Amaranthus retroflexus); test: Test A postemergence; details: Amaranthus retroflexus, post-emergence, 240 h, Postemergence, read-out: Pigweed plant response rating (0 to 100 scale)
Procedure, shortened: as §1

[13] = system: ragweed (common ragweed, Ambrosia elatior); test: Test A postemergence; details: Ambrosia artemisiifolia, post-emergence, 240 h, Postemergence, read-out: Ragweed plant response rating (0 to 100 scale)
Procedure, shortened: as §1

[14] = system: ryegrass, Italian (Italian ryegrass, Lolium multiflorum); test: Test A postemergence; details: Lolium multiflorum, post-emergence, 240 h, Postemergence, read-out: Ryegrass, Italian plant response rating (0 to 100 scale)
Procedure, shortened: as §1

[15] = system: wheat (Triticum aestivum); test: Test A postemergence; details: Triticum aestivum, post-emergence, 240 h, Postemergence, read-out: Wheat plant response rating (0 to 100 scale)
Procedure, shortened: as §1

[16] = system: barnyardgrass (Echinochloa crus-galli); test: Test B flooded paddy test; details: Echinochloa crus-galli, 250 g ai/ha, Flood; 0 to 100 scale where 0 is no effect and 100 is complete control; read-out: Barnyardgrass plant response rating
Procedure, shortened: (§2)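 Plants at 2-leaf stage flooded to 3 cm above soil, with compounds applied directly to paddy water and that depth maintained. Plants kept in greenhouse 13–15 d. Visual rating versus controls on a 0 (no effect) to 100 (complete control) scale.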

[17] = system: ducksalad (Heteranthera limosa); test: Test B flooded paddy test; details: Heteranthera limosa, 250 g ai/ha, Flood; 0 to 100 scale where 0 is no effect and 100 is complete control; read-out: Ducksalad plant response rating
Procedure, shortened: as §2

rice (Oryra sativa) = test: Test B flooded paddy test; details: Oryza sativa, 250 g ai/ha, Flood; 0 to 100 scale where 0 is no effect and 100 is complete control; read-out: Rice plant response rating
Procedure, shortened: as §2

[18] = system: sedge, umbrella (small-flower umbrella sedge, Cyperus difformis); test: Test B flooded paddy test; details: Cyperus difformis, 250 g ai/ha, Flood; 0 to 100 scale where 0 is no effect and 100 is complete control; read-out: Sedge, Umbrella plant response rating
Procedure, shortened: as §2

[19] = 125 g ai/ha, preemergence, visual injury rating, approximately 10 d
[20] = 125 g ai/ha, visual rating about 10 d after treatment
[21] = 31 g ai/ha, 0 is no effect, 100 is complete control

CN1C[C@H](c2cccc(C#N)c2)[C@@H](C(=O)Nc2ccc(F)c(F)c2F)C1=O [Compound 1287]
15%: pest or weed control at 250 g/ha (rice (Oryra sativa))
40%: pest or weed control at 125 g/ha [4, 19] | pest or weed control at 125 g/ha [6, 19] | pest or weed control at 125 g/ha [7, 20]
80%: pest or weed control at 31 g/ha ([9]; 31 g ai/ha, 0 is no effect, 100 is complete control, read-out: Barnyardgrass plant response rating (0 to 100 scale)) | pest or weed control at 125 g/ha [11, 20] | pest or weed control at 250 g/ha [17]
100%: pest or weed control at 125 g/ha [2, 19] | pest or weed control at 31 g/ha ([3]; 31 g ai/ha, Preemergence) | pest or weed control at 125 g/ha [3, 19]
70%: pest or weed control at 125 g/ha (Kochia (Kochia scoparia) [1]; [19]) | pest or weed control at 31 g/ha [11, 21]
30%: pest or weed control at 31 g/ha [7, 21] | pest or weed control at 125 g/ha (Kochia (Kochia scoparia) [8]; [20])
90%: pest or weed control at 31 g/ha ([2]; 31 g ai/ha, Preemergence) | pest or weed control at 125 g/ha ([9]; 125 g ai/ha, visual rating about 10 d after treatment, read-out: Barnyardgrass plant response rating (0 to 100 scale, 0 no effect, 100 complete control))
20%: pest or weed control at 31 g/ha (Kochia (Kochia scoparia) [1]; 31 g ai/ha, Preemergence) | pest or weed control at 125 g/ha [10, 20]
75%: pest or weed control at 250 g/ha [16]
0%: pest or weed control at 31 g/ha ([4]; 31 g ai/ha, Preemergence) | pest or weed control at 31 g/ha ([5]; 31 g ai/ha, Preemergence) | pest or weed control at 125 g/ha [5, 19] | pest or weed control at 31 g/ha ([6]; 31 g ai/ha, Preemergence) | pest or weed control at 31 g/ha (Kochia (Kochia scoparia) [8]; [21]) | pest or weed control at 31 g/ha [10, 21] | plant injury at 125 g/ha (corn (Zea mays); [20]) | plant injury at 31 g/ha (corn (Zea mays); [21]) | pest or weed control at 125 g/ha [12, 20] | pest or weed control at 31 g/ha [12, 21] | pest or weed control at 125 g/ha [13, 20] | pest or weed control at 31 g/ha [13, 21] | pest or weed control at 125 g/ha [14, 20] | pest or weed control at 31 g/ha [14, 21] | plant injury at 125 g/ha [15, 20] | plant injury at 31 g/ha [15, 21] | pest or weed control at 250 g/ha [18]

Source: patent US12077503B2, “Substituted cyclic amides and their use as herbicides” (FMC CORPORATION, priority 2015, dated 2024)
